Results taken from patent publication US5837686A, “Peptides and antibodies for treatment of rheumatoid arthritis” (Peptide Therapeutics Limited, priority 1991, dated 1998).
Ends that are not written are not given here.

Experiments:
[1] = system: alternative complement (C3) pathway; test: Inhibition of C3-activation (IgA-α1 AT complex activation of alternative complement pathway, rabbit RBC lysis); assay type: biochemical, human; details: for C' minimum: Table 6, minimum concentration needed to prevent C3 activation
Method: Various peptides were tested for their ability to prevent the IgA-α1 AT complex from activating the alternative complement (C3) pathway. […] This method was based on the method described by Riches and Stanworth, Immunology Letters, 1980, 1, 363,366, with modification to miniaturise it thus allowing the assay to be carried out on microtitre plates. The initial observation by […] and Ishizaka (J Immunol. […] The non-immune complex IgA-α1 AT had been shown in the past to be the only known soluble complex to activate the alternative pathway complement and inhibit the lysis of the rabbit erythrocytes. This inhibition required biologically active complex. […] Positive and negative controls, serum only controls and serum plus IgA-α1 AT complex controls were included in the assay. 25 μl of a suitable dilution of IgA-α1 AT complex (see (iii) above) was added to the test wells and the plates were centrifuged at 2000 rpm for 1 minute. The plates were then incubated at 37° C. for 11/2 hours. 50 μl of a suitable serum dilution (see (a) above) was added and the plates centrifuged at 2000 rpm for 10 minute, then incubated at 37° C. for 30 minutes. 50 μl of 1% rabbit RBC was added and after a further 30 minutes of 37° C. incubation, the plates were centrifuged at 2000 rpm for 10 minutes. Supernatants were taken as previously. The mean values of each of the serum(s), serum and complex (c+s) and total haemolysis wells were calculated. The % haemolysis with respect to lysis by serum wells was calculated. The peptide was considered to have titred out when % lysis value was equal to the calculated % lysis value given by the c+s mean. The titre point for the peptide was calculated as the concentration in μM of the peptide that just gave greater lysis than the c+s mean value.

[2] = system: IgA-α1 AT complex; test: HPLC analysis of dissociation of purified IgA-α1 AT complex in vitro; assay type: biochemical, human; details: for HPLC minimum: Table 6, minimum concentration giving complex: free IgA ratio of 20%, >500 = no dissociation at highest concentration tested; for anti-complex activity (in words): summary statements after Tables 2-6
Method: The ability of the peptides of the invention to dissociate purified IgA-α1 AT complex in vitro was tested as described below. The anti-rheumatic drug D-penicillamine and other synthetic peptides were used as controls. […] The sample was monitored at wavelength 206 nm at a flow rate of 1 ml/minute with phosphate buffer (0.1M) pH 7.1. They represent the ability of the peptides to dissociate the IgA-α1 AT complex in vitro. In these experiments, the base-lines level comprises a complex: free IgA ratio of 14%. The minimum concentration of peptide taken to produce a positive dissociation effect is that which results in a complex: free IgA ratio at 20%. In the results tables, all the peptide values are expressed in μMoles.

Molecule: HGCGGGGnh2 [Peptide 168]
- C' ([1]; Table 1, minimum concentration of peptide needed to prevent C3 activation): 8 µM
- HPLC % ([2]; Table 1, minimum peptide concentration giving complex: free IgA ratio of 20% (base-line 14%), 90 minutes at 37° C.): 10 µM

Molecule: CC(C)(S)[C@@H](N)C(=O)O [D-Penicillamine]
- C' minimum [1]: 31 µM
- HPLC minimum [2]: 250 µM

Molecule: CC(=O)N[C@@H](CS)C(=O)O [N-acetyl Cysteine]
- C' minimum [1]: 4 µM
- HPLC minimum [2]: 500 µM
- anti-complex activity (in words) [2]: relatively inactive

Molecule: Substance P (RPKPQQFFGLM; ends and bridges not checked; UniProt P20366 58-68, looked up) [control peptide of Group 6]
- C' minimum [1]: > 500 µM
- HPLC minimum [2]: > 500 µM

Molecule: N[C@@H](CS)C(=O)O [Cysteine]
- C' minimum [1]: 16 µM
- HPLC minimum [2]: 250 µM

Molecule: N[C@@H](CCC(=O)N[C@@H](CS)C(=O)NCC(=O)O)C(=O)O [Glutathione]
- C' minimum [1]: 31 µM
- HPLC minimum [2]: 500 µM
- anti-complex activity (in words) [2]: relatively inactive
